Converted amounts (≈) assume the structure as drawn. Starred links: 1 amine or outer side, 2 acyl side, 3 side chain; linkers in the order of their positions; H or OH if unused. Positions of bridges follow the written chain, without caps; N, C: chain ends. Non-standard residues stand in square brackets, D forms with d. Residues, ends and D or L forms follow the SMILES beside them. *: point of attachment. X1 = CC[C@H](C)[C@@H](N[*:1])[C@@H](O)CC(=O)O[C@H](C(=O)[C@H](C)C(=O)[*:2])C(C)C; NMeY = CN[C@@H](Cc1ccc(O)cc1)C(=O)O; dNMeL = CN[C@H](CC(C)C)C(=O)O; pGlu = O=C1CC[C@@H](C(=O)O)N1; Pyruvoyl = CC(=O)C(=O)*; Cbz = O=C(OCc1ccccc1)*; Boc = CC(C)(C)OC(=O)*; Lac = C[C@H](O)C(=O)O
Key:
[1] = Cytotoxicity of didemnins (Table II); format: cell-based; conditions: for IC50: cytotoxicity
[2] = tested on: HSV; test: Antiviral activities of didemnins, HSV/CV-1; format: cell-based; design: key: +++ = complete inhibition; ++ = strong inhibition; + = moderate inhibition; − = no inhibition
[3] = tested on: CV-1; test: Cytotoxicity score in the HSV/CV-1 antiviral assay; conditions: scale 0 (least toxic) to 16 (toxic)
[4] = tested on: P388 Murine Leukemia; test: Life extension vs. P388 murine leukemia in mice; format: in vivo

Row | SMILES | Inhibition (%) ([1]; Dose 0.25 ng/mL) | Inhibition (%) ([1]; Dose 2.5 ng/mL) | Inhibition (%) ([1]; Dose 25 ng/mL) | Inhibition (%) ([1]; Dose 250 ng/mL) | IC50 [1] [ng/mL] | Activity ([2]; 10 ng/mL) | Activity ([2]; 20 ng/mL) | Activity ([2]; 50 ng/mL) | Activity ([2]; 100 ng/mL) | Cytotoxocity ([3]; 10 ng/mL) | Cytotoxocity ([3]; 20 ng/mL) | Cytotoxocity ([3]; 50 ng/mL) | Cytotoxocity ([3]; 100 ng/mL) | T/C (% of Control, Life Extension) ([4]; Dose 0.025 mg/kg) | T/C (% of Control, Life Extension) ([4]; Dose 0.05 mg/kg) | T/C (% of Control, Life Extension) ([4]; Dose 1 mg/kg)
1 | CC[C@H](C)[C@H]1NC(=O)[C@@H](NC(=O)[C@@H](CC(C)C)N(C)C(=O)[C@@H]2CCCN2C(=O)OC(C)(C)C)[C@@H](C)OC(=O)[C@H](Cc2ccc(OC)cc2)N(C)C(=O)[C@@H]2CCCN2C(=O)[C@H](CC(C)C)NC(=O)[C@@H](C)C(=O)[C@H](C(C)C)OC(=O)C[C@@H]1O [Boc-Pro-didemnin A (158), Boc-L-prolyl-didemnin A] (Boc-P[dNMeL]T[X1]LP[NMeY](Me); ester 3-C) | 0 | 0 | 55 | 100 | 85 (≈ 74.5 nM) |  |  |  |  |  |  |  |  |  |  | 
2 | CC[C@H](C)[C@H]1NC(=O)[C@@H](NC(=O)[C@@H](CC(C)C)N(C)C(=O)[C@@H]2CCCN2C(=O)[C@H](C)OC(=O)[C@H](CCC(N)=O)NC(=O)OCc2ccccc2)[C@@H](C)OC(=O)[C@H](Cc2ccc(OC)cc2)N(C)C(=O)[C@@H]2CCCN2C(=O)[C@H](CC(C)C)NC(=O)[C@@H](C)C(=O)[C@H](C(C)C)OC(=O)C[C@@H]1O [Cbz-Gln-Didemnin B (161), N-Benzyloxycarbonyl-L-glutaminyl-didemnin B] (Cbz-Q[Lac]P[dNMeL]T[X1]LP[NMeY](Me); ester 5-C) | 0 | 0 | 87 | 100 | 25 (≈ 18.2 nM) | − | + | + | + | 0 | 0 | 0 | 0 |  |  | 
3 | CC[C@H](C)[C@H]1NC(=O)[C@@H](NC(=O)[C@@H](CC(C)C)N(C)C(=O)[C@@H]2CCCN2C(=O)[C@H](C)OC(=O)[C@H](CCC(N)=O)NC(=O)OCc2ccccc2)[C@@H](C)OC(=O)[C@H](Cc2ccc(OC)cc2)N(C)C(=O)[C@@H]2CCCN2C(=O)[C@H](CC(C)C)NC(=O)[C@@H](C)C(=O)[C@H](C(C)C)OC(=O)C[C@@H]1OC(=O)[C@H](CCC(N)=O)NC(=O)OCc1ccccc1 [Cbz-Gln[Cbz-GlnIst^2]DB (162), di-(benzyloxycarbonyl)glutaminyl-didemnin B] | 0 | 0 | 87 | 99 | 50 (≈ 30.5 nM) | + | + | + | +++ | 0 | 0 | 0 | 0 |  |  | 
4 | CC[C@H](C)[C@H]1NC(=O)[C@@H](NC(=O)[C@@H](CC(C)C)N(C)C(=O)[C@@H]2CCCN2C(=O)[C@H](C)OC(=O)[C@@H]2CCC(=O)N2C(=O)OCc2ccccc2)[C@@H](C)OC(=O)[C@H](Cc2ccc(OC)cc2)N(C)C(=O)[C@@H]2CCCN2C(=O)[C@H](CC(C)C)NC(=O)[C@@H](C)C(=O)[C@H](C(C)C)OC(=O)C[C@@H]1O [Cbz-pGlu-Didemnin B (145), N-Benzyloxycarbonyl-L-pyroglutaminyl-didemnin B] | 0 | 0 | 70 | 100 | 50 (≈ 36.8 nM) | − | + | + | + | 0 | 0 | 0 | 0 |  |  | 
5 | CC[C@H](C)[C@H]1NC(=O)[C@@H](NC(=O)[C@@H](CC(C)C)N(C)C(=O)[C@@H]2CCCN2C(=O)C(C)=O)[C@@H](C)OC(=O)[C@H](Cc2ccc(OC)cc2)N(C)C(=O)[C@@H]2CCCN2C(=O)[C@H](CC(C)C)NC(=O)[C@@H](C)C(=O)[C@H](C(C)C)OC(=O)C[C@@H]1O [Dehydrodidemnin B (6), Dehydrodidemnin B] (Pyruvoyl-P[dNMeL]T[X1]LP[NMeY](Me); ester 3-C) | 95 | 100 | 100 | 100 | 0.2 (≈ 0.18 nM) | + | +++ |  |  | 0 | 0 | 16 | 16 |  |  | 
6 | CC[C@H](C)[C@H]1NC(=O)[C@@H](NC(=O)[C@@H](CC(C)C)N(C)C(=O)[C@@H]2CCCN2C(=O)C(C)O)[C@@H](C)OC(=O)[C@H](Cc2ccc(OC)cc2)N(C)C(=O)[C@@H]2CCCN2C(=O)[C@H](CC(C)C)NC(=O)[C@@H](C)C(=O)[C@H](C(C)C)OC(=O)C[C@@H]1O (stereo partly shown) [Didemnin (B) (2), Didemnin B, reference compound] | 0 | 40 | 100 | 100 | 7 (≈ 6.29 nM) | + | +++ | +++ |  | 0 | 0 | 0 | 16 |  |  | 
7 | CC[C@H](C)[C@H]1NC(=O)[C@@H](NC(=O)[C@@H](CC(C)C)NC)[C@@H](C)OC(=O)[C@H](Cc2ccc(OC)cc2)N(C)C(=O)[C@@H]2CCCN2C(=O)[C@H](CC(C)C)NC(=O)[C@@H](C)C(=O)[C@H](C(C)C)OC(=O)C[C@@H]1O [Didemnin A (1), Didemnin A] (H-[dNMeL]T[X1]LP[NMeY](Me); ester 2-C) | 0 | 0 | 70 | 100 | 75 (≈ 79.5 nM) | − | + | + | + | 0 | 0 | 0 | 0 |  |  | 
8 | CC[C@H](C)[C@H]1NC(=O)[C@@H](NC(=O)[C@@H](CC(C)C)N(C)C(=O)[C@@H]2CCCN2C(=O)[C@H](C)OC(=O)[C@H](CCC(N)=O)NC(=O)[C@@H]2CCC(=O)N2)[C@@H](C)OC(=O)[C@H](Cc2ccc(OC)cc2)N(C)C(=O)[C@@H]2CCCN2C(=O)[C@H](CC(C)C)NC(=O)[C@@H](C)C(=O)[C@H](C(C)C)OC(=O)C[C@@H]1O [Didemnin M (5), L-Pyroglutaminyl-L-glutaminyl-didemnin B] ([pGlu]Q[Lac]P[dNMeL]T[X1]LP[NMeY](Me); ester 6-C) | 94 | 100 | 100 | 100 | 0.8 (≈ 0.592 nM) | + | +++ |  |  | 0 | 0 | 16 | 16 |  |  | 
9 | CC[C@H](C)[C@H]1NC(=O)[C@@H](NC(=O)[C@@H](CC(C)C)N(C)C(=O)[C@@H]2CCCN2C(=O)[C@H](C)OC(=O)[C@@H](N)CCC(N)=O)[C@@H](C)OC(=O)[C@H](Cc2ccc(OC)cc2)N(C)C(=O)[C@@H]2CCCN2C(=O)[C@H](CC(C)C)NC(=O)[C@@H](C)C(=O)[C@H](C(C)C)OC(=O)C[C@@H]1O [Gln-Didemnin B, Glutaminyl-didemnin B] (H-Q[Lac]P[dNMeL]T[X1]LP[NMeY](Me); ester 5-C) | 94 | 100 | 100 | 100 | 0.1 (≈ 0.0806 nM) | +++ |  |  |  | 0 | 16 | 16 | 16 | 152 % of Control | 171 % of Control | 185 % of Control
10 | CC[C@H](C)[C@H]1NC(=O)[C@@H](NC(=O)[C@@H](CC(C)C)N(C)C(=O)[C@@H]2CCCN2C(=O)[C@H](C)OC(=O)[C@@H](N)CCC(N)=O)[C@@H](C)OC(=O)[C@H](Cc2ccc(OC)cc2)N(C)C(=O)[C@@H]2CCCN2C(=O)[C@H](CC(C)C)NC(=O)[C@@H](C)C(=O)[C@H](C(C)C)OC(=O)C[C@@H]1OC(=O)[C@@H](N)CCC(N)=O [Gln[GlnIst^2]-Didemnin B (160), Glutaminyl-glutaminyl-didemnin B] | 0 | 0 | 87 | 100 | 50 (≈ 36.5 nM) | + | + | + | +++ | 0 | 0 | 0 | 0 |  |  | 
11 | CC[C@H](C)[C@H]1NC(=O)[C@@H](NC(=O)[C@@H](CC(C)C)N(C)C(=O)[C@@H]2CCCN2)[C@@H](C)OC(=O)[C@H](Cc2ccc(OC)cc2)N(C)C(=O)[C@@H]2CCCN2C(=O)[C@H](CC(C)C)NC(=O)[C@@H](C)C(=O)[C@H](C(C)C)OC(=O)C[C@@H]1O [Prolyl-didemnin A (43), prolyl-didemnin A] (H-P[dNMeL]T[X1]LP[NMeY](Me); ester 3-C) | 30 | 40 | 99 | 100 | 12 (≈ 11.5 nM) |  |  |  |  |  |  |  |  |  |  | 
12 | CC[C@H](C)[C@H]1NC(=O)[C@@H](NC(=O)[C@@H](CC(C)C)N(C)C(=O)[C@@H]2CCCN2C(=O)[C@H](C)OC(=O)[C@@H]2CCC(=O)N2)[C@@H](C)OC(=O)[C@H](Cc2ccc(OC)cc2)N(C)C(=O)[C@@H]2CCCN2C(=O)[C@H](CC(C)C)NC(=O)[C@@H](C)C(=O)[C@H](C(C)C)OC(=O)C[C@@H]1O [pGlu-Didemnin B (39), L-Pyroglutaminyl-didemnin B] ([pGlu][Lac]P[dNMeL]T[X1]LP[NMeY](Me); ester 5-C) | 94 | 100 | 100 | 100 | 0.1 (≈ 0.0817 nM) | + | +++ |  |  | 0 | 0 | 16 | 16 |  |  | 

Reference: US6841530B2, “Semi-synthetic studies toward didemnin analogues” (The Board of Trustees of the University of Illinois, priority 1996, dated 2005)
